ChEMBL document CHEMBL1201862, “PubChem BioAssay data set” (2004)
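Protocol summary: plate cells (96-well), add compound at 5 concentrations, incubate 48 h, interpolate endpoints linearly. At the GI50, growth is halved.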 Activity calls are given as the source filed them. No stated cut-off is given here; in the data, active = GI50 up to about 1.1 µM and inactive = higher.

Key:
Test in all cases: NCI-60 cell line screen, 48 h
SR = tested on: SR
SW-620 = tested on: SW-620
UO-31 = tested on: UO-31
U-251 = tested on: U-251
K562 = tested on: K562
HCT-15 = tested on: HCT-15
BT-549 = tested on: BT-549
TK-10 = tested on: TK-10
NCI/ADR-RES = tested on: NCI/ADR-RES
NCI-H23 = tested on: NCI-H23
NCI-H460 = tested on: NCI-H460
KM12 = tested on: KM12
DU-145 = tested on: DU-145
ACHN = tested on: ACHN
SK-MEL-5 = tested on: SK-MEL-5
NCI-H226 = tested on: NCI-H226
SF-295 = tested on: SF-295
IGROV-1 = tested on: IGROV-1
NCI-H522 = tested on: NCI-H522

In the case of `CC(=O)c1cn(-c2ccc(Cl)cc2)c(=O)c2c(N)n[nH]c12`, the GI50 (SR) is reported as > 100 µM (inactive), the GI50 (SW-620) is reported as > 100 µM (inactive) and the GI50 (UO-31) is reported as > 100 µM (inactive). The GI50 (U-251) was > 100 µM (inactive), the GI50 (K562) was 22.3 µM (inactive) and the GI50 (HCT-15) was over 100 µM. For the same compound, the GI50 (BT-549) was 2.56 µM (inactive), the GI50 (TK-10) was > 100 µM (inactive) and the GI50 (NCI/ADR-RES) was > 100 µM (inactive). The GI50 (NCI-H23) was > 100 µM (inactive), the GI50 (NCI-H460) was > 100 µM (inactive) and the GI50 (KM12) was > 100 µM (inactive). The GI50 (DU-145) was > 100 µM (inactive), the GI50 (ACHN) was 25.6 µM (inactive) and the GI50 (SK-MEL-5) was > 100 µM (inactive). For the same compound, the GI50 (NCI-H226) was > 100 µM (inactive), the GI50 (SF-295) was > 100 µM (inactive) and the GI50 (IGROV-1) was > 100 µM (inactive).
`COC(=O)C(CCCCN)NC(C)=O.Cc1ccc(C(=O)Nc2ccc(S(=O)(=O)O)c3cc(S(=O)(=O)O)cc(S(=O)(=O)O)c23)cc1NC(=O)c1cccc(NC(=O)Nc2cccc(C(=O)Nc3cc(C(=O)Nc4ccc(S(=O)(=O)O)c5cc(S(=O)(=O)O)cc(S(=O)(=O)O)c45)ccc3C)c2)c1` was tested, and the GI50 (SR) was > 50 µM (inactive), the GI50 (SW-620) was > 50 µM (inactive) and the GI50 (UO-31) was > 50 µM (inactive). For the same compound, the GI50 (U-251) was > 50 µM (inactive), the GI50 (K562) was > 50 µM (inactive) and the GI50 (HCT-15) was 23.9 µM. For the same compound, the GI50 (BT-549) was > 50 µM (inactive), the GI50 (NCI/ADR-RES) was > 50 µM (inactive) and the GI50 (NCI-H23) was > 50 µM (inactive). For the same compound, the GI50 (NCI-H460) was > 50 µM (inactive), the GI50 (KM12) was > 50 µM (inactive) and the GI50 (DU-145) was > 50 µM (inactive). The GI50 (ACHN) was > 50 µM (inactive), the GI50 (SK-MEL-5) was > 50 µM (inactive) and the GI50 (NCI-H226) was > 50 µM (inactive). The GI50 (SF-295) was > 50 µM (inactive).
For `OCCCCCCCCCCCOc1ccc(C2OCC3(CO2)COC(c2ccc(OCCCCCCCCCCCO)cc2)OC3)cc1` (centres undefined), the GI50 (SR) was > 50 µM (inactive), the GI50 (SW-620) was > 50 µM (inactive) and the GI50 (UO-31) was > 50 µM (inactive). The GI50 (U-251) was > 50 µM (inactive), the GI50 (K562) was > 50 µM (inactive) and the GI50 (HCT-15) was over 50 µM. For the same compound, the GI50 (BT-549) was > 50 µM (inactive), the GI50 (TK-10) was > 50 µM (inactive) and the GI50 (NCI/ADR-RES) was > 50 µM (inactive). For the same compound, the GI50 (NCI-H23) was > 50 µM (inactive), the GI50 (NCI-H460) was > 50 µM (inactive) and the GI50 (KM12) was > 50 µM (inactive). For the same compound, the GI50 (DU-145) was > 50 µM (inactive), the GI50 (ACHN) was > 50 µM (inactive) and the GI50 (SK-MEL-5) was > 50 µM (inactive). The GI50 (NCI-H226) was 29.6 µM (inactive), the GI50 (SF-295) was > 50 µM (inactive) and the GI50 (IGROV-1) was > 50 µM (inactive).
With `COc1cccc2c1OC(c1ccc(Cl)cc1)C([N+](=O)[O-])=C2` (centres undefined) the GI50 (SR) was 0.538 µM (active), the GI50 (NCI-H522) was 1.59 µM (inactive) and the GI50 (UO-31) was 1.77 µM (inactive). For the same compound, the GI50 (U-251) was 2.38 µM (inactive), the GI50 (K562) was 0.411 µM (active) and the GI50 (HCT-15) was 1.81 µM. The GI50 (BT-549) was 1.24 µM (inactive), the GI50 (TK-10) was 4.95 µM (inactive) and the GI50 (NCI/ADR-RES) was 3.79 µM (inactive). For the same compound, the GI50 (NCI-H23) was 3.77 µM (inactive), the GI50 (NCI-H460) was 1.58 µM (inactive) and the GI50 (KM12) was 2.08 µM (inactive). The GI50 (DU-145) was 3.68 µM (inactive), the GI50 (ACHN) was 1.46 µM (inactive) and the GI50 (SK-MEL-5) was 1.53 µM (inactive). The GI50 (SF-295) was 3.1 µM (inactive) and the GI50 (IGROV-1) was 2.25 µM (inactive).
`NCCCN1CCN(CCCNc2ccc3nnn4c5ccccc5c(=O)c2c34)CC1` was tested, and the GI50 (SR) was > 100 µM (inactive), the GI50 (NCI-H522) was 11.3 µM (inactive) and the GI50 (SW-620) was 11 µM (inactive). For the same compound, the GI50 (UO-31) was 22.1 µM (inactive), the GI50 (U-251) was 24 µM (inactive) and the GI50 (K562) was 8.07 µM (inactive). For the same compound, the GI50 (HCT-15) was 20.7 µM, the GI50 (BT-549) was 5.81 µM (inactive) and the GI50 (TK-10) was 24.9 µM (inactive). The GI50 (NCI/ADR-RES) was 55 µM (inactive), the GI50 (NCI-H23) was 14.8 µM (inactive) and the GI50 (NCI-H460) was 18.4 µM (inactive). For the same compound, the GI50 (DU-145) was 14.9 µM (inactive), the GI50 (ACHN) was 12.4 µM (inactive) and the GI50 (SK-MEL-5) was 13.5 µM (inactive). The GI50 (SF-295) was 16.8 µM (inactive) and the GI50 (IGROV-1) was 13.5 µM (inactive).
With `O=CC(O)C(O)C(O)C(O)C(=O)NCCCCCCCCCCCCNC(=O)C(O)C(O)C(O)C(O)C=O` (centres undefined) the GI50 (SR) was > 100 µM (inactive), the GI50 (NCI-H522) was > 100 µM (inactive) and the GI50 (SW-620) was > 100 µM (inactive). For the same compound, the GI50 (UO-31) was > 100 µM (inactive), the GI50 (U-251) was > 100 µM (inactive) and the GI50 (HCT-15) was over 100 µM. For the same compound, the GI50 (BT-549) was > 100 µM (inactive), the GI50 (TK-10) was > 100 µM (inactive) and the GI50 (NCI/ADR-RES) was > 100 µM (inactive). The GI50 (NCI-H23) was > 100 µM (inactive), the GI50 (NCI-H460) was > 100 µM (inactive) and the GI50 (KM12) was > 100 µM (inactive). The GI50 (DU-145) was > 100 µM (inactive), the GI50 (ACHN) was > 100 µM (inactive) and the GI50 (SK-MEL-5) was > 100 µM (inactive). For the same compound, the GI50 (NCI-H226) was > 100 µM (inactive), the GI50 (SF-295) was > 100 µM (inactive) and the GI50 (IGROV-1) was > 100 µM (inactive).
With `COc1ccc(-n2sc3ncccc3c2=O)cc1` the GI50 (SR) was 13.2 µM (inactive), the GI50 (NCI-H522) was 17.5 µM (inactive) and the GI50 (SW-620) was 32.1 µM (inactive). For the same compound, the GI50 (UO-31) was 19.1 µM (inactive), the GI50 (U-251) was 23.1 µM (inactive) and the GI50 (HCT-15) was 22.6 µM. The GI50 (BT-549) was 20.4 µM (inactive), the GI50 (TK-10) was 18.9 µM (inactive) and the GI50 (NCI/ADR-RES) was 25 µM (inactive). For the same compound, the GI50 (NCI-H23) was 19.3 µM (inactive), the GI50 (NCI-H460) was 34.6 µM (inactive) and the GI50 (KM12) was 19.1 µM (inactive). For the same compound, the GI50 (DU-145) was 39.4 µM (inactive), the GI50 (ACHN) was 19.4 µM (inactive) and the GI50 (SK-MEL-5) was 20 µM (inactive). For the same compound, the GI50 (NCI-H226) was 39.4 µM (inactive), the GI50 (SF-295) was > 100 µM (inactive) and the GI50 (IGROV-1) was 23.6 µM (inactive).
For `Cc1[nH]c(=O)c2oc3cc4ccccc4cc3c2c1C(=O)O`, the GI50 (SR) was > 10 µM (inactive), the GI50 (NCI-H522) was > 10 µM (inactive) and the GI50 (SW-620) was > 10 µM (inactive). The GI50 (UO-31) was > 10 µM (inactive), the GI50 (U-251) was > 10 µM (inactive) and the GI50 (HCT-15) was over 10 µM. The GI50 (BT-549) was > 10 µM (inactive), the GI50 (TK-10) was > 10 µM (inactive) and the GI50 (NCI/ADR-RES) was > 10 µM (inactive). For the same compound, the GI50 (NCI-H23) was > 10 µM (inactive), the GI50 (NCI-H460) was > 10 µM (inactive) and the GI50 (KM12) was > 10 µM (inactive). For the same compound, the GI50 (DU-145) was > 10 µM (inactive), the GI50 (ACHN) was > 10 µM (inactive) and the GI50 (NCI-H226) was > 10 µM (inactive). For the same compound, the GI50 (SF-295) was 8.99 µM (inactive) and the GI50 (IGROV-1) was > 10 µM (inactive).
